# Data taken from publication PMC7179434, “1,2,4-Triazolo[1,5-a]pyrimidines as a Novel Class of Inhibitors of the HIV-1 Reverse Transcriptase-Associated Ribonuclease H Activity” (Molecules, 2020).
# “Also recorded” adds a separate entry of the source. Where two headings read alike, the source gives them in different places.
# How the values were obtained:
# HIV-1 RNase H = molecular target: HIV-1 RNase H; parameters: method as in ref 17-25, 27-29 (per compound as in Figure 1 legend); conditions: known allosteric RNHIs, 27-29 (per compound as in Figure 1 legend), cited from earlier work
# HIV-1 replication = conditions: cited from earlier work
# HIV-1 RDDP = test system: HIV-1 RDDP; parameters: method as in ref 17-21, 27-29 (per compound as in Figure 1 legend); conditions: known allosteric RNHIs; 27-29 (per compound as in Figure 1 legend); cited from earlier work
# cell growth = test system: cell growth; parameters: method as in PMID 17184135, PMID 23631411; conditions: concentration that inhibits cell growth by 50%; read-out: CC50 (cytotoxicity); cited from earlier work
# in vitro = conditions: human
# HIV-2 (ROD strain) = assay: Anti-HIV-2 activity in acutely infected MT-4 cells (MTT); format: cell-based
# [1] = molecular target: HIV-1 RT-associated RNase H (Human immunodeficiency virus type 1 group M subtype B, UniProt P03366); assay: biochemical; format: biochemical
# HIV-1 RT-associated RDDP = HIV-1 RT-associated RDDP (Human immunodeficiency virus type 1 group M subtype B, UniProt P03366); assay: biochemical; format: biochemical
# HIV-1 (IIIB strain) = format: cell-based; conditions: acutely infected MT-4 cells
# HIV-2 RNase H = molecular target: HIV-2 RNase H; parameters: method as in PMID 18831589; conditions: cited from earlier work
# [2] = 28 (per compound as in Figure 1 legend)
smiles,measurement,setting,value
COc1ccc2ccccc2c1/C=N/NC(=O)c1ccc(O)c(O)c1 [Compound 1],IC50,HIV-1 RNase H,500 nM
same,EC50,HIV-1 replication; [2],5500 nM
same,IC50,HIV-1 RDDP,> 25000 nM
same,CC50,cell growth,> 100000 nM
"Cc1cc(-c2ccccc2)n2nc(NC(=O)c3ccc(O)c(O)c3)nc2n1 [Compound 12g, 3,4-Dihydroxy-N-(5-methyl-7-phenyl-[1,2,4]triazolo[1,5-a]pyrimidin-2-yl)benzamide]",CC50 at 5 days,in vitro,112000 nM
same,anti-HIV-2 (ROD strain) activity,HIV-2 (ROD strain),none of the compounds having RNase H inhibition showed anti-HIV activity at concentrations lower than those cytotoxic
same,IC50,[1],800 ± 200 nM
same,melting point,,285 to 288 °C
same,IC50,HIV-1 RT-associated RDDP,> 100000 nM
same,anti-HIV-1 (IIIB strain) activity,HIV-1 (IIIB strain),did not result in anti-HIV-1 activity in cellular context; also recorded: none of the compounds having RNase H inhibition showed anti-HIV activity at concentrations lower than those cytotoxic
NC(=O)c1c(N)sc2c1CCCCC2 [Compound 5],IC50,HIV-1 RNase H,2000 to 2500 nM
same,IC50,HIV-1 RNase H; listed as 5 (NSC727447),2000 nM
same,EC50 (HIV-1 replication),HIV-1 replication; [2],not active
same,selectivity index (SI),HIV-1 replication; anti-HIV-1 activity vs cytotoxicity,4
same,IC50,HIV-2 RNase H,2000 to 2500 nM
same,IC50,HIV-2 RNase H; listed as 5 (NSC727447),2500 nM
same,IC50,[1],4000 ± 500 nM
O=c1[nH]c(-c2ccc(O)c(O)c2)nc2sc3c(c12)CCCCC3 [Compound 7],IC50,HIV-1 RNase H,290 nM
same,EC50,HIV-1 replication; [2],1600 nM
same,CC50,cell growth,6800 nM
